# Assay results published in patent publication US12403161B2, “Compositions for drug delivery and methods of use thereof” (Stellular Bio, Inc., priority 2018, dated 2025).
# Counter-ions that a name gives are not always drawn.
# B1: BMP4: bone morphogenic protein 4, Stage 1 media growth factor (protein, UniProt P12644 293-408, looked up)
# Bone morphogenetic protein 4: SPKHHSQRARKKNKNCRRHSLYVDFSDVGWNDWIVAPPGYQAFYCHGDCPFPLADHLNSTNHAIVQTLVNSVNSSIPKACCVPTELSAISMLYLDEYDKVVLKNYQEMVVEGCGCR
# Key:
# [1] = test system: iPSC differentiation cultures on Laminin 521; assay: WNT agonist addition to iPSC directed differentiation (immunofluorescence); assay type: cell-based, human; details: for Stage 1 differentiation efficiency at day 6 (CD31 and CD34 immunofluorescence): 0.6 μM CHIR98014 or 6 μM CHIR99021 for the first 48 hours
# Source text: WNT signaling is important during development. The GSK3 kinase inhibitors CHIR98014 and CHIR99021 act as WNT agonists. […] The control and CHIR98014 cultures were then transitioned to Stage 2, where the production and release of preMKs were tracked by immunofluorescence staining of CD41 and CD43.
# human washed platelets = assay: Small-molecule loading of human washed platelets by passive diffusion; assay type: cell-based; details: 100 μM, 1e7 platelets in 1 ml, ambient temperature, dialysis cassette
# Experimental: 100 μM of Doxorubicin was used with a preparation of 1e7 platelets in 1 ml of buffer and incubated at ambient temperature for 30, 120, 240, and 1440 minutes under constant agitation on an orbital shaker in a dialysis cassette (Thermofisher #88400). […] A kinetic study was employed to understand the minimum and maximum amount of time necessary for doxorubicin encapsulation in the washed platelets.
# [2] = test system: iPSC differentiation cultures; assay: Order and timing of Stage 1 growth factor addition, preMK yields; assay type: cell-based, human; details: Experiment B
# [3] = test system: iPSC 3D differentiation cultures; assay: Soluble Laminin 521 addition in 3D iPSC differentiation, preMK yields; assay type: cell-based, human; details: for preMK yields in Stage 2 vs control without addition: addition at Day −1 or Day 6
# Experimental: […] 24 hours later, the media was replaced with Stage 1 media and media exchanges were performed for 6 days. […] Media was then exchanged with Stage 2 media, with or without soluble Laminin 521. 24 hours later, daily half media exchanges were performed for up to 6 additional days.
molecule,measurement,setting,value
Cc1c[nH]c(-c2cnc(NCCNc3ccc(C#N)cn3)nc2-c2ccc(Cl)cc2Cl)n1 [CHIR99021],Stage 1 differentiation efficiency at day 6 (CD31 and CD34 immunofluorescence),[1],dramatic increase
"COc1cccc2c1C(=O)c1c(O)c3c(c(O)c1C2=O)C[C@@](O)(C(=O)CO)C[C@@H]3O[C@H]1C[C@H](N)[C@H](O)[C@H](C)O1 [doxorubicin, Doxorubicin hydrochloride]",incubation time sufficient to see detectable doxorubicin in platelets,human washed platelets,30 min
CHIR98014,Stage 1 differentiation efficiency at day 6 (CD31 and CD34 immunofluorescence),[1],dramatic increase
same,Stage 2 output (visual estimation of CD41+ cells),[1]; 0.6 μM in first 48 hours of Stage 1,higher output
"FGF2: basic fibroblast growth factor, Stage 1 media growth factor",requirement of growth factor during Stage 1 differentiation,[2],critical for differentiation to proceed effectively
Laminin 521: soluble recombinant human protein Laminin 521,preMK yields in Stage 2 vs control without addition,[3]; 96-well U-bottom ultra-low adherent plate,increased the preMK yields
same,preMK yields in Stage 2 vs control without addition,[3]; agitated 6-well ultra-low adherent plate on orbital shaker,increased the preMK yields
same,Laminin 521 effect on preMK yields with single-cell passaged iPSCs,[3]; self-aggregation in NutriStem,effect was amplified
B1,requirement of growth factor during Stage 1 differentiation,[2],dispensable beyond 24 hours
